Source: the supplement of paper PMC10878532, “Sperm Toolbox—A selection of small molecules to study human spermatozoa” (PLOS ONE, 2024)
Where a name gives a salt, the structure may show the parent alone.

What was measured:
human spermatozoa [1] = test: hyperactivated motile sperm, percent change vs DMSO (capacitating); higher = more of the measured sperm population than DMSO, for viability, fewer PI-positive (dead) cells than DMSO; conditions: incubation time: 30min incubation
human spermatozoa [2] = test: total motile sperm, percent change vs DMSO (non-capacitating); higher = more of the measured sperm population than DMSO, for viability, fewer PI-positive (dead) cells than DMSO
human spermatozoa [3] = test: progressively motile sperm, percent change vs DMSO (non-capacitating); higher = more of the measured sperm population than DMSO, for viability, fewer PI-positive (dead) cells than DMSO; extreme values may be limits of the assay
HeLa [4] = test: HeLa toxicity: nuclei-count effect normalised to DMSO (DMSO = 0); higher = more features changed / larger toxic effect; conditions: incubation time: 24h incubation
HepG2 = HepG2 toxicity (resazurin), effect normalised to DMSO (DMSO = 0); higher = more features changed / larger toxic effect; conditions: incubation time: 70h incubation
human spermatozoa [5] = test: viability fold change, 1 - (PI-positive fraction / DMSO median); higher = more of the measured sperm population than DMSO, for viability, fewer PI-positive (dead) cells than DMSO; conditions: incubation time: 3h, non-capacitating
HeLa [6] = test: Cell Painting percent induction (share of features beyond 2 z-scores vs DMSO); higher = more features changed / larger toxic effect; extreme values may be limits of the assay; conditions: incubation time: 24h incubation
human spermatozoa [7] = test: acrosome-reacted (PNA+) sperm after agonist cocktail, percent change vs DMSO (capacitating); higher = more of the measured sperm population than DMSO, for viability, fewer PI-positive (dead) cells than DMSO; conditions: incubation time: 3h, capacitating + agonist cocktail 1h
human spermatozoa [8] = test: change in acrosome-reacted (PNA+) sperm vs DMSO, no agonist (capacitating); higher = more of the measured sperm population than DMSO, for viability, fewer PI-positive (dead) cells than DMSO; conditions: incubation time: 3h
human spermatozoa [9] = test: progressively motile sperm, percent change vs DMSO (capacitating); higher = more of the measured sperm population than DMSO, for viability, fewer PI-positive (dead) cells than DMSO; conditions: incubation time: 30min incubation
[10] = incubation time: 10min incubation, 9.99 µM
[11] = incubation time: 10min incubation, 29.9 µM
[12] = incubation time: 3h incubation, 9.99 µM
[13] = incubation time: 3h incubation, 29.9 µM
[14] = incubation time: 6h incubation, 9.99 µM
[15] = incubation time: 6h incubation, 29.9 µM
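For progressively motile sperm, percent change vs DMSO (non-capacitating) in this document: pooled live human sperm from at least 3 donors, tracked by automated microscopy in 0.5 s time-lapse movies, compounds at 10 and 30 µM, versus median of 16 DMSO wells per plate.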
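For total motile sperm, percent change vs DMSO (non-capacitating) in this document: sperm pooled from at least 3 donors, tracked in 0.5 s time-lapse movies by automated microscopy after 10 min, 3 h or 6 h with compound at 10 or 30 µM.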

| SMILES | hyperactivated motile sperm (human spermatozoa [1]; 9.99 µM) [%] | hyperactivated motile sperm (human spermatozoa [1]; 29.9 µM) [%] | total motile sperm (human spermatozoa [2]; [10]) [%] | total motile sperm (human spermatozoa [2]; [11]) [%] | total motile sperm (human spermatozoa [2]; [12]) [%] | total motile sperm (human spermatozoa [2]; [13]) [%] | total motile sperm (human spermatozoa [2]; [14]) [%] | total motile sperm (human spermatozoa [2]; [15]) [%] | progressively motile sperm (human spermatozoa [3]; [10]) [%] | progressively motile sperm (human spermatozoa [3]; [11]) [%] | progressively motile sperm (human spermatozoa [3]; [12]) [%] | progressively motile sperm (human spermatozoa [3]; [13]) [%] | progressively motile sperm (human spermatozoa [3]; [14]) [%] | progressively motile sperm (human spermatozoa [3]; [15]) [%] | HeLa toxicity: nuclei-count effect normalised (HeLa [4]; 9.99 µM) [%] | HeLa toxicity: nuclei-count effect normalised (HeLa [4]; 29.9 µM) [%] | HepG2 toxicity (HepG2; 10 µM) [%] | HepG2 toxicity (HepG2; 30 µM) [%] | viability fold change (human spermatozoa [5]; 9.99 µM) | viability fold change (human spermatozoa [5]; 29.9 µM) | Cell Painting percent induction (HeLa [6]; 9.99 µM) [%] | Cell Painting percent induction (HeLa [6]; 29.9 µM) [%] | acrosome-reacted (human spermatozoa [7]; 9.99 µM) [%] | acrosome-reacted (human spermatozoa [7]; 29.9 µM) [%] | change in acrosome-reacted (human spermatozoa [8]; 9.99 µM) [%] | change in acrosome-reacted (human spermatozoa [8]; 29.9 µM) [%] | progressively motile sperm (human spermatozoa [9]; 9.99 µM) [%] | progressively motile sperm (human spermatozoa [9]; 29.9 µM) [%] |
| --- | --- | --- | --- | --- | --- | --- | --- | --- | --- | --- | --- | --- | --- | --- | --- | --- | --- | --- | --- | --- | --- | --- | --- | --- | --- | --- | --- | --- |
| CN(C)CCCn1cc(C2=C(c3c[nH]c4ccccc34)C(=O)NC2=O)c2ccccc21 | 11.8 | -3.96 | 1.63 | 0.0178 | -1.97 | -13.1 | 1.29 | -6.7 | 3.74 | 4.75 | 9.83 | -7.22 | 23.9 | -4.1 | -5.34 | 3.61 | -5.59 | 8.33 | -0.204 | -0.45 | 0.072 | 0.072 | -2.39 | -7.18 | 0.106 | 0.127 | 4 | 5.48 |
| N=C(N)Nc1nc2ccccc2[nH]1 [2-Guanidinobenzimidazole] | -8.85 | -1.69 | 0.879 | -2.57 | 1.34 | -1.87 | 1.24 | -6.01 | 3.14 | 0.263 | 13 | 14 | 18.7 | 6.54 | 1.07 | -4.21 | 7.28 | -2.48 | -1.37 | -0.849 | 0 | 0.036 | -0.796 | -2.33 |  |  | 0.502 | 7.48 |
| CC(=O)N1CCC(C(=O)N(CCCN2CCN(Cc3ccc(F)cc3)CC2)c2ccc(C)c(Cl)c2)CC1 [B07 hydrochloride] | 4.68 | -29.9 | -3.45 | -1.62 | -0.778 | -4.4 | -2.31 | -8.75 | -0.531 | -2.62 | 3.74 | -2.22 | 13.9 | -0.382 | -8.22 | -2.4 |  |  | -0.0249 | -0.378 | 0 | 0 | -7.75 | -16.6 | -0.33 | -0.655 | 2.3 | 5.54 |
| CC(C)(C)c1ccc(S(=O)(=O)Nc2ccc(OC(F)(F)F)c(F)c2-c2ccc(C(=O)O)c3ncccc23)cc1F [CCR6 inhibitor] | 12.5 | -21 | 2.36 | 5.45 | -5.06 | -0.0893 | -5.81 | -4.71 | 4.23 | 5.16 | 7.86 | 2.54 | 7.11 | -7.05 |  |  | 2.54 | -7.66 | -0.213 | -0.279 |  |  | 4.58 | -1.79 | 0.627 | 0.716 | 3.94 | 10.4 |
| CO[C@H]1[C@@H](OC)C[C@H](C)[C@@H](OC)C2=CC(=O)C=C(NC(=O)/C(C)=C/C=C/[C@H](OC)[C@@H](OC(N)=O)/C(C)=C/[C@@H]1C)C2=O [Herbimycin a] | -22.2 | -70.4 | 7.08 | 3.19 | -13.6 | -85.1 | -11.7 | -85 | 11.6 | -9.27 | -37.6 | -100 | -46.3 | -100 | 23.2 | 37.9 | 101 | 103 | -1.59 | -1.04 | 0.216 | 0 |  |  |  |  | 3.33 | -50.9 |
| CCS(=O)(=O)Nc1ccc2c(c1)/C(=C(/Nc1ccc(CN3CCCCC3)cc1)c1ccccc1)C(=O)N2 [Hesperadin hydrochloride] | -68.7 | -76 | -7.06 | -8.13 | -15.5 | -16.9 | -15.3 | -19 | -47.3 | -48.7 | -44.8 | -57.8 | -44.4 | -55.4 | 84.4 | 96.7 |  |  | -0.123 | -0.0637 | 19.1 | 29.9 | -34.6 | -37.5 | 0.15 | 1.01 | -13.4 | -15.1 |
| CCCCCCOC(=O)[C@]1(O)C[C@@H]2O[C@@]1(C)n1c3ccccc3c3c4c(c5c6ccccc6n2c5c31)C(=O)NC4 [KT 5720] | 5.63 | -20.1 | -0.664 | -5.21 | 5.89 | -0.934 | 5.3 | 0.422 | -3.28 | -15.1 | 16.6 | 6.24 | 29.8 | 17.9 | -2.2 | 9.55 |  |  | -0.0644 | -0.13 | 0 | 0.072 | 0.89 | 0.941 | 1.66 | 0.54 | 2.73 | -4.6 |
| NC(=O)c1cccnc1 [Nicotinamid] | 16 | 5.44 | 0.928 | 6.07 | -8.41 | -0.358 | -0.499 | 0.662 | 15.4 | 14.2 | -10.7 | 3.29 | 0.762 | -3.22 |  |  |  |  | -0.835 | -0.522 |  |  |  |  |  |  | 3.35 | 13.2 |
| C[C@@H]1O[C@@H](O[C@H]2C[C@@H](O)[C@]3(CO)[C@H]4[C@H](O)C[C@]5(C)[C@@H](C6=CC(=O)OC6)CC[C@]5(O)[C@@H]4CC[C@]3(O)C2)[C@H](O)[C@H](O)[C@H]1O [Ouabain] |  |  |  |  |  |  |  |  |  |  |  |  |  |  | 72.1 | 70.1 | 94.6 | 93.2 |  |  | 0.54 | 0.324 |  |  |  |  |  |  |
| c1cnc2c(c1)ccc1cccnc12 [Phenanthroline] | 18.4 | 17.2 | -2.32 | -4.26 | 3.46 | -8.46 | -1.8 | -11.3 | -0.0696 | -0.36 | 1.8 | -21.2 | -1.34 | -23.3 | 46 | 43 |  |  | 0.0432 | -0.258 | 1.08 | 1.15 | 8.37 | 9.76 | 0.27 | 0.435 | 10.3 | 16.3 |
